Assay results from BindingDB's records for doi:10.1021/jm010841w (University of Bristol, 2002).

Tests used:
[1] = Maximum percentage effect of standard Opioid receptor delta 1 (Cl-DPDPE)
[2] = Maximum % effect of standard (DAMGO) was reported against Opioid receptor mu 1

Row | SMILES | EC50 [1] [nM] | EC50 [2] [nM]
1 | CN1CC[C@]23c4c5ccc(O)c4O[C@H]2c2c(c(-c4ccccc4)cn2Cc2ccccc2)C[C@@]3(O)C1C5 [7-benzyl-18-methyl-5-phenyl-10-oxa-7,18-diazahexacyclo[9.9.1.01,9.02,17.04,8.015,21]henicosa-4(8),5,11,13,15(21)-pentaene-2,12-diol] | 41 | –
2 | Cc1ccc(-c2cn(Cc3ccccc3)c3c2C[C@@]2(O)C4Cc5ccc(O)c6c5[C@@]2(CCN4CC2CC2)[C@H]3O6)cc1 [7-benzyl-18-cyclopropylmethyl-5-(4-methylphenyl)-10-oxa-7,18-diazahexacyclo[9.9.1.01,9.02,17.04,8.015,21]henicosa-4(8),5,11,13,15(21)-pentaene-2,12-diol] | – | 34
